What was measured:
[1] = target: human activated kallikrein enzyme (Homo sapiens, UniProt P03952); assay: Inhibition of activated plasma kallikrein, fluorogenic peptide substrate (PFR-AMC) assay, 500 pM enzyme format; assay type: biochemical; conditions: 500 pM activated kallikrein, 300 uM PFR-AMC, 30 min preincubation, 10 min reaction, room temperature; read-out: Primary Dose Response Assay: Average EC50
Procedure, shortened: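 500 pM enzyme preincubated 30 min at room temperature with inhibitor in 20 mM Tris pH 7.5, 150 mM NaCl, 1 mM EDTA, 0.1% PEG-400, 0.1% Triton X-100. Reaction started with 300 uM PFR-AMC and run 10 min at room temperature. Fluorescence read at 380 nm excitation/460 nm emission.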

[2] = target: T1, plasma kallikrein (Homo sapiens, UniProt P03952); assay: Neat human plasma assay: contact pathway-activated (FXIIa) plasma, PFR-AMC substrate; assay type: biochemical; conditions: citrated human plasma (78% final), 10 nM human FXIIa, 100 μM PFR-AMC, room temperature
T1 construct: from tissue; host or cells: sodium citrate collected human plasma (78% final)
T1 sequence (P03952 391-638 limits assumed): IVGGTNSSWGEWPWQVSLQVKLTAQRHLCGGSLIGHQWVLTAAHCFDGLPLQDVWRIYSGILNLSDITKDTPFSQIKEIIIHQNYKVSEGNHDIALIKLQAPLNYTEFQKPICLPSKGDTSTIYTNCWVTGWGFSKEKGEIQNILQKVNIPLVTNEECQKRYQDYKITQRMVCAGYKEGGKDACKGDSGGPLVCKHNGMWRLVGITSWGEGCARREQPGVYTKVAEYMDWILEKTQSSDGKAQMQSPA
T1 sequence (P03952 20-390 partner limits assumed): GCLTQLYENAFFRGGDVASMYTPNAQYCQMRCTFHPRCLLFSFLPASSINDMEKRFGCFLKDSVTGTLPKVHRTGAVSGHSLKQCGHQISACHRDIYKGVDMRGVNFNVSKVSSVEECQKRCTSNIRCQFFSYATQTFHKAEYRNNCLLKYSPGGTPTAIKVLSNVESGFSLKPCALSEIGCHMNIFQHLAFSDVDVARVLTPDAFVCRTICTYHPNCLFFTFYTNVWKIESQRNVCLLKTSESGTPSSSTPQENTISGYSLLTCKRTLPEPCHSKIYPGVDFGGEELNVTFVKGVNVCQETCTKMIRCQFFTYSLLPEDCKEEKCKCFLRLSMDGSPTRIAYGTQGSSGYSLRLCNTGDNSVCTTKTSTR
Procedure, shortened: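 Compounds spiked into citrated human or rat plasma (78% final), or plasma taken from orally or IV dosed rats, activated with 10 nM human FXIIa; 100 μM PFR-AMC cleavage read at 360/480 nm for 5 min, room temperature. Rates vs concentration fit to 4-parameter IC50/IC90 equation.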

Chain of human activated kallikrein enzyme (P03952 391-638 limits assumed): as the sequence (P03952 391-638 limits assumed) above
Chain of human activated kallikrein enzyme (P03952 20-390 partner limits assumed): as the sequence (P03952 20-390 partner limits assumed) above

Compound	EC50 [1] [nM]	IC90 [2] [nM]
COc1cc(NCc2cn3cc(C)cc(N4CC(=O)N(C)C4=O)c3n2)cc2nc([C@H]3C[C@@H]3c3nccc(C)n3)ccc12 (racemic) [Example 104, rac-1-(2-(((5-methoxy-2-((1S*,2S*)-2-(4-methylpyrimidin-2-yl)cyclopropyl)quinolin-7-yl)amino)methyl)-6-methylimidazo[1,2-a]pyridin-8-yl)-3-methylimidazolidine-2,4-dione]	1 to 10	400 to 1500
Cc1ccnc([C@H]2C[C@@H]2C2=NS(=O)(=O)c3cc4c(cc3N2)N(Cc2cn3cc(C5CC5)ccc3n2)CCO4)n1 [Example 93, 6-((6-cyclopropylimidazo[1,2-a]pyridin-2-yl)methyl)-3-((1S,2S)-2-(4-methylpyrimidin-2-yl)cyclopropyl)-7,8-dihydro-4H,6H-[1,4]oxazino[2′,3′:4,5]benzo[1,2-e][1,2,4]thiadiazine 1,1-dioxide]	≤ 1	1500 to 10000
Cc1ccnc([C@H]2C[C@@H]2C2=NS(=O)(=O)c3ccc(OCc4cn5cc(C6CC6)ccc5n4)cc3N2)n1 (racemic) [Example 92, rac-6-((6-cyclopropylimidazo[1,2-a]pyridin-2-yl)methoxy)-3-((1S*,2S*)-2-(4-methylpyrimidin-2-yl)cyclopropyl)-4H-benzo[e][1,2,4]thiadiazine 1,1-dioxide]	≤ 1	1500 to 10000

Source: US20240199613A1 (TAKEDA PHARMACEUTICAL COMPANY LIMITED, priority 2021, published 2024)
